# Test results as given in US6716428B1, “Antigenic modification of polypeptides” (The Ohio State University Research Foundation, priority 1999, dated 2004).
# Read-outs that look alike come from different tables or passages of the source.
# Key:
# [1] = system: HCG; assay: Antibody level to HCG in immunized mice (^125I antigen, double antibody technique); format: in vivo; conditions: for Antibody Level to HCG: mice, carrier series; for Antibody level to CG: 52 days
# [2] = system: peptide used in the conjugate (Structure (II), (XII), (XIV), (X)); assay: Antibody level to the peptide of the conjugate in immunized mice (^125I antigen, double antibody technique); format: in vivo; conditions: for Antibody Level to Peptide: mice, carrier series; for Antibody level to Structure (XII): 52 days
# [3] = system: HCG; format: in vivo, rabbit
# [4] = system: female baboons; assay: Fertility rates (matings and pregnancies) of immunized female baboons; format: in vivo, baboon; conditions: CFA
# [5] = system: baboons; assay: Breeding of immunized baboons (pre-mate titer, ovulation, pregnancy), Diazo-β-HCG presensitized, Diazo-β-HCG-(111-145) booster; format: in vivo, baboon; conditions: for Pre-Mate Titer: baboon 2, matings No. 1-10 over approximately one year
# Description: Baboons were immunized initially with a beta subunit of HCG modified by diazotization in a manner similar to that described in conjunction with Example II. Following this initial administration, the baboons were injected 21 and 42 days later with the peptide of Structure (II) above which had been modified by the same diazotization process. The levels were maintained for a period of over one year.
# The Table presents the results of mating these animals ten times over a period of approximately one year. […] Such cross reactivity may be avoided by the utilization of the fragment conjugation procedures set forth in detail hereinabove.
molecule,measurement,setting,value
"Structure (XII): residues 109-145 of beta-HCG, SEQ ID NO: 13; unconjugated in Table 11 (carrier None) (TCDDPRFQDSSSSKAPPPSLPSPSRLPGPSDTPILPQ; listed as Homo sapiens)",Antibody Level to HCG,[1]; 21 days,0.1 ng/mL
same,Antibody Level to HCG,[1]; 35 days,0.1 ng/mL
same,Antibody Level to Peptide,"[2]; peptide of Structure (XII), 21 days after primary immunization",1.3 ng/mL
same,Antibody Level to Peptide,[2]; 35 days,0.8 ng/mL
"CCCCCCCCCCCCCCCCCC(=O)OCC1OC(O)C(NC(C)=O)C(OC(C)C(=O)NC(C)C(=O)NC(CCC(=O)O)C(N)=O)C1O (stereo not drawn) [CGP 18177, NAc-Mur (6-0-stearoyl)-LAla-D.isoGln]",Mean Antibody Level-^125I-HCG,"[3]; as E193, 4 weeks",215.1 M/L × 10^10
same,Mean Antibody Level-^125I-HCG,"[3]; as E193, 5 weeks",204.6 M/L × 10^10
same,Mean Antibody Level-^125I-HCG,"[3]; as E193, 6 weeks",218.2 M/L × 10^10
same,Mean Antibody Level-^125I-HCG,"[3]; as E193, 7 weeks",441.9 M/L × 10^10
same,Mean Antibody Level-^125I-HCG,"[3]; as E193, 8 weeks",544.9 M/L × 10^10
same,Mean Antibody Level-^125I-HCG,"[3]; as E193, 9 weeks",456.2 M/L × 10^10
same,Mean Antibody Level-^125I-HCG,"[3]; as E193, 10 weeks",631.0 M/L × 10^10
same,Mean Antibody Level-^125I-HCG,"[3]; as E193, 11 weeks",584.0 M/L × 10^10
same,Mean Antibody Level-^125I-HCG,"[3]; as E193, 12 weeks",270.0 M/L × 10^10
same,Mean Antibody Level-^125I-HCG,[3]; in vivo,19.9 M/L × 10^10
"N-Palmitoyl-S-[2(R,S)-3-dipalmitoyloxy-propyl]-L-Cys-L-Ser-L-Ser-L-Asn-L-Ala-L-Glu [CGP 16940]",HCG antibody levels compared with the CFA immunized rabbits,[3]; in vivo,significantly lower
same,Antibody level to CG,[1],1.0 ng/mL
same,Antibody level to CG,"[1]; C3H/He mice, same conjugate",<1.0 ng/mL
same,Antibody level to CG,"[1]; DBA mice, same conjugate",<1.0 ng/mL
same,Antibody level to CG,"[1]; SJL mice, same conjugate",8.6 ng/mL
same,Antibody level to Structure (XII),[2],110.0 ng/mL
same,Antibody level to Structure (XII),"[2]; C3H/He mice, same conjugate",19.2 ng/mL
same,Antibody level to Structure (XII),"[2]; DBA/1 mice, same conjugate",173.0 ng/mL
same,Antibody level to Structure (XII),"[2]; SJL mice, same conjugate",369.0 ng/mL
Tetanus Toxoid: carrier protein given alone to the control group,Fertility Rate,[4]; Mating Cycle 1,66.7%
same,Number Pregnant,[4]; Mating Cycle 1,10
same,Fertility Rate,[4]; Mating Cycle 2,80.0%
same,Number Pregnant,[4]; Mating Cycle 2,4
same,Fertility Rate,[4]; Mating Cycle 3,100.0%
same,Number Pregnant,[4]; Mating Cycle 3,1
same,Overall Fertility Rate,[4]; all matings of three mating cycles,71.4%
same,Total Number Pregnant,[4]; three mating cycles,15
"Diazo-β-HCG-(111-145): peptide of Structure (II) modified by diazotization, booster after presensitization with diazotized beta subunit of HCG (DDPRFQDSSSSKAPPPSLPSPSRLPGPSDTPILPQ; diazo conjugate; UniProt P0DN86 131-165, looked up, fragment)",Pre-Mate Titer,[5]; before Mating No. 2,4.10
same,Pre-Mate Titer,[5]; before Mating No. 3,4.00
same,Pre-Mate Titer,[5]; before Mating No. 4,3.89
same,Pre-Mate Titer,[5]; before Mating No. 5,3.76
same,Pre-Mate Titer,[5]; before Mating No. 6,5.00
same,Pre-Mate Titer,[5]; before Mating No. 7,4.75
same,Pre-Mate Titer,[5]; before Mating No. 8,4.20
same,Pre-Mate Titer,[5]; before Mating No. 9,4.25
same,antibody cross reactivity with LH,[5]; in vivo,antibody cross reactivity with LH was observed
"CCC(NC(=O)COC1C(O)C(CO)OC(O)C1NC(C)=O)C(=O)NC(CCC(=O)O)C(N)=O [CGP 14767, NAc-nor-Mur-L-Abu-D.isoGln]",Antibody level to CG,[1],21.0 ng/mL
same,Antibody level to CG,"[1]; C3H/He mice, same conjugate",21.4 ng/mL
same,Antibody level to CG,"[1]; DBA mice, same conjugate",11.1 ng/mL
same,Antibody level to CG,"[1]; SJL mice, same conjugate",5.4 ng/mL
same,Antibody level to Structure (XII),[2],53.0 ng/mL
same,Antibody level to Structure (XII),"[2]; C3H/He mice, same conjugate",74.9 ng/mL
same,Antibody level to Structure (XII),"[2]; DBA/1 mice, same conjugate",22.2 ng/mL
same,Antibody level to Structure (XII),"[2]; SJL mice, same conjugate",91.6 ng/mL
